In article PMC8286840, “Identifying SARS-CoV-2 antiviral compounds by screening for small molecule inhibitors of Nsp3 papain-like protease” (Biochemical Journal, 2021):
Where a name gives a salt, the structure may show the parent alone. Read-outs that look alike come from different tables or passages of the source. *1 amine or outer side, *2 acyl side, *3 side chain or, on linkers, in order; H or OH if unused. Where a SMILES comes first, the peptide text is derived from it. Side-chain parts run from the residue outwards. [ ]: non-standard residue; d: D form. The star is where a group is joined. Ethylenediamine = C(CN[*:2])N[*:1]; Hyp = O=C(O)[C@@H]1C[C@@H](O)CN1; Phg = N[C@H](C(=O)O)c1ccccc1; CO = O=C([*:1])[*:2]; Bn = c1ccc(C*)cc1

Columns and labels:
[1] = molecular target: T1, SARS-CoV-2 PLpro (nsp3 1564–1878) (Severe acute respiratory syndrome coronavirus 2, UniProt P0DTD1); assay: biochemical; design: FRET-quenched peptide (Pro3) cleavage by PLpro, 10 min pre-incubation, slope over 20 min, normalised to no-compound control; details: low concentration screen, read-out: % of control remaining
[2] = molecular target: T1, SARS-CoV-2 PLpro (nsp3 1564–1878); assay: biochemical; design: FRET-quenched peptide (Pro3) cleavage by PLpro, 10 min pre-incubation, slope over 20 min, normalised to no-compound control; details: high concentration screen, read-out: % of control remaining

## COc1ccc(C(C)=O)c(O)c1 [Paeonol]
[1]; Well no.=4045
  remaining activity at 1.25 µM: 100%
[1]; Well no.=8194
  remaining activity at 1.25 µM: 105%
[2]; Well no.=4045
  remaining activity at 3.75 µM: 101%
[2]; Well no.=8194
  remaining activity at 3.75 µM: 102%

## CC(=O)c1c(C)c2cnc(Nc3ccc(N4CCNCC4)cn3)nc2n(C2CCCC2)c1=O [Palbociclib (hydrochloride)]
[1]; Well no.=7350
  remaining activity at 1.25 µM: 96.3%
[2]; Well no.=7350
  remaining activity at 3.75 µM: 97.5%

## CC(=O)c1c(C)c2cnc(Nc3ccc(N4CCNCC4)cn3)nc2n(C2CCCC2)c1=O [Palbociclib (isethionate)]
[1]; Well no.=7316
  remaining activity at 1.25 µM: 103%
[2]; Well no.=7316
  remaining activity at 3.75 µM: 103%

## Cc1nc2n(c(=O)c1CCN1CCC(c3noc4cc(F)ccc34)CC1)CCCC2O (centres unmarked) [Paliperidone]
[1]; Well no.=8197
  remaining activity at 1.25 µM: 109%
[2]; Well no.=8197
  remaining activity at 3.75 µM: 99.6%

## COc1cc2c(cc1OC)-c1cc3ccc(OC)c(OC)c3c[n+]1CC2 [Palmatine chloride]
[1]; Well no.=3641
  remaining activity at 1.25 µM: 101%
[2]; Well no.=3641
  remaining activity at 3.75 µM: 99.2%

## CCCCCCCCCCCCCCCC(=O)O [Palmitic acid]
[1]; Well no.=7077
  remaining activity at 1.25 µM: 98.9%
[2]; Well no.=7077
  remaining activity at 3.75 µM: 94.2%

## CCCCCCCCCCCCCCCC(=O)NCCc1ccc(O)c(O)c1 [Palmitoyl dopamine]
[1]; Well no.=4261
  remaining activity at 1.25 µM: 101%
[2]; Well no.=4261
  remaining activity at 3.75 µM: 98.2%

## COc1ccc(COc2cc3oc(=O)c4cc(C(C)O)ccc4c3cc2OC)cc1 (centres unmarked) [Palomid 529]
[1]; Well no.=4860
  remaining activity at 1.25 µM: 102%
[2]; Well no.=4860
  remaining activity at 3.75 µM: 98.2%

## O=C1c2cccc3c2[C@H](CCC3)CN1[C@@H]1CN2CCC1CC2 [Palonosetron (Hydrochloride)]
[1]; Well no.=6614
  remaining activity at 1.25 µM: 98.5%
[2]; Well no.=6614
  remaining activity at 3.75 µM: 98%

## O=C1c2cccc3c2[C@H](CCC3)CN1[C@@H]1CN2CCC1CC2 [Palonosetron HCl]
[1]; Well no.=4923
  remaining activity at 1.25 µM: 99.3%
[2]; Well no.=4923
  remaining activity at 3.75 µM: 98.2%

## Cc1cc(NC(=O)NCCN2CCC(O)(Cc3ccccc3)CC2)c2ccccc2n1 [Palosuran]
[1]; Well no.=7915
  remaining activity at 1.25 µM: 105%
[2]; Well no.=7915
  remaining activity at 3.75 µM: 92.5%

## NCCC(O)(P(=O)(O)O)P(=O)(O)O [Pamidronate Disodium]
[1]; Well no.=4773
  remaining activity at 1.25 µM: 96.6%
[2]; Well no.=4773
  remaining activity at 3.75 µM: 97.3%

## CC1(C)CCC[C@](C)([C@H]2CC[C@]3(C)[C@@H]2[C@H](O)C[C@@H]2[C@@]4(C)CC[C@H](O)C(C)(C)[C@@H]4CC[C@]23C)O1 [Panaxadiol]
[1]; Well no.=3739
  remaining activity at 1.25 µM: 100%
[2]; Well no.=3739
  remaining activity at 3.75 µM: 99.1%

## CC1(C)CCC[C@](C)([C@H]2CC[C@]3(C)[C@@H]2[C@H](O)C[C@@H]2[C@@]4(C)CC[C@H](O)C(C)(C)[C@@H]4[C@@H](O)C[C@]23C)O1 [Panaxatriol]
[1]; Well no.=3699
  remaining activity at 1.25 µM: 94.8%
[2]; Well no.=3699
  remaining activity at 3.75 µM: 101%

## CC(=O)O[C@H]1C[C@@H]2CC[C@@H]3[C@H](CC[C@@]4(C)[C@H]3C[C@H]([N+]3(C)CCCCC3)[C@@H]4OC(C)=O)[C@@]2(C)C[C@@H]1[N+]1(C)CCCCC1 [Pancuronium bromide]
[1]; Well no.=808
  remaining activity at 1.25 µM: 98.5%
[2]; Well no.=808
  remaining activity at 3.75 µM: 97.8%

## Cc1[nH]c2ccccc2c1CCNCc1ccc(/C=C/C(=O)NO)cc1 [Panobinostat (LBH589)]
[1]; Well no.=4832
  remaining activity at 1.25 µM: 94.6%
[2]; Well no.=4832
  remaining activity at 3.75 µM: 96.4%

## COc1ccnc(C[S+]([O-])c2nc3cc(OC(F)F)ccc3[nH]2)c1OC (centres unmarked) [Pantoprazole]
[1]; Well no.=2091
  remaining activity at 1.25 µM: 101%
[2]; Well no.=2091
  remaining activity at 3.75 µM: 99.9%

## CC(C)(CO)[C@@H](O)C(=O)NCCC(=O)O [Pantothenic acid]
[1]; Well no.=2288
  remaining activity at 1.25 µM: 90.1%
[2]; Well no.=2288
  remaining activity at 3.75 µM: 92.3%

## COc1ccc(Cc2nccc3cc(OC)c(OC)cc23)cc1OC [Papaverine hydrochloride]
[1]; Well no.=1144
  remaining activity at 1.25 µM: 98.1%
[2]; Well no.=1144
  remaining activity at 3.75 µM: 98.9%

## CCc1cccc2c1c(O)c(C(=O)N(CC)c1ccccc1)c(=O)n2C [Paquinimod]
[1]; Well no.=8373
  remaining activity at 1.25 µM: 92.6%
[2]; Well no.=8373
  remaining activity at 3.75 µM: 92.5%

## C#CCN(C)Cc1ccccc1 [Pargyline hydrochloride]
[1]; Well no.=1445
  remaining activity at 1.25 µM: 99.1%
[2]; Well no.=1445
  remaining activity at 3.75 µM: 98.9%

## NC[C@@H]1O[C@H](O[C@H]2[C@@H](O)[C@H](O[C@@H]3[C@@H](O)[C@H](N)C[C@H](N)[C@H]3O[C@H]3O[C@H](CO)[C@@H](O)[C@H](O)[C@H]3N)O[C@@H]2CO)[C@H](N)[C@@H](O)[C@@H]1O [Paromomycin sulfate]
[1]; Well no.=1211
  remaining activity at 1.25 µM: 99.9%
[2]; Well no.=1211
  remaining activity at 3.75 µM: 100%

## Fc1ccc([C@@H]2CCNC[C@H]2COc2ccc3c(c2)OCO3)cc1 [Paroxetine]
[1]; Well no.=2093
  remaining activity at 1.25 µM: 103%
[2]; Well no.=2093
  remaining activity at 3.75 µM: 101%

## NCCCC[C@@H]1NC(=O)[C@@H](Cc2c[nH]c3ccccc23)NC(=O)[C@H](c2ccccc2)NC(=O)[C@@H]2C[C@@H](OC(=O)NCCN)CN2C(=O)[C@H](Cc2ccccc2)NC(=O)[C@H](Cc2ccc(OCc3ccccc3)cc2)NC1=O [Pasireotide (ditrifluoroacetate)] (cyclo([Hyp]([CO-Ethylenediamine])[Phg][dW]KY(Bn)F))
[1]; Well no.=7988
  remaining activity at 1.25 µM: 96.1%
[2]; Well no.=7988
  remaining activity at 3.75 µM: 101%

## O=C1C=C2C(=CCOC2O)O1 (centres unmarked) [Patulin]
[1]; Well no.=3543
  remaining activity at 1.25 µM: 105%
[2]; Well no.=3543
  remaining activity at 3.75 µM: 103%

## Cc1ccc(Nc2nccc(N(C)c3ccc4c(C)n(C)nc4c3)n2)cc1S(N)(=O)=O [Pazopanib HCl]
[1]; Well no.=4613
  remaining activity at 1.25 µM: 110%
[2]; Well no.=4613
  remaining activity at 3.75 µM: 107%

## Cc1ccc(Nc2nccc(N(C)c3ccc4c(C)n(C)nc4c3)n2)cc1S(N)(=O)=O [Pazopanib]
[1]; Well no.=2841
  remaining activity at 1.25 µM: 103%
[2]; Well no.=2841
  remaining activity at 3.75 µM: 103%

## C[C@H]1COc2c(C3(N)CC3)c(F)cc3c(=O)c(C(=O)O)cn1c23 [Pazufloxacin]
[1]; Well no.=2095
  remaining activity at 1.25 µM: 97.7%
[2]; Well no.=2095
  remaining activity at 3.75 µM: 98.2%

## OC1c2ccccc2N=C2CCCN21 (centres unmarked) [Peganole]
[1]; Well no.=3541
  remaining activity at 1.25 µM: 95.9%
[2]; Well no.=3541
  remaining activity at 3.75 µM: 104%

## Nc1nc2[nH]cc(CCc3ccc(C(=O)N[C@@H](CCC(=O)O)C(=O)O)cc3)c2c(=O)[nH]1 [Pemetrexed (Alimta)]
[1]; Well no.=4677
  remaining activity at 1.25 µM: 98.1%
[2]; Well no.=4677
  remaining activity at 3.75 µM: 98.7%

## Nc1nc2[nH]cc(CCc3ccc(C(=O)N[C@@H](CCC(=O)O)C(=O)O)cc3)c2c(=O)[nH]1 [Pemetrexed (disodium hemipenta hydrate)]
[1]; Well no.=7604
  remaining activity at 1.25 µM: 95.1%
[2]; Well no.=7604
  remaining activity at 3.75 µM: 95.6%

## Nc1nc2[nH]cc(CCc3ccc(C(=O)N[C@@H](CCC(=O)O)C(=O)O)cc3)c2c(=O)[nH]1 [Pemetrexed (disodium)]
[1]; Well no.=7500
  remaining activity at 1.25 µM: 102%
[2]; Well no.=7500
  remaining activity at 3.75 µM: 93.5%

## Nc1nc2[nH]cc(CCc3ccc(C(=O)N[C@@H](CCC(=O)O)C(=O)O)cc3)c2c(=O)[nH]1 [Pemetrexed Disodium Hydrate]
[1]; Well no.=8732
  remaining activity at 1.25 µM: 96.6%
[2]; Well no.=8732
  remaining activity at 3.75 µM: 97.8%
